Reference: ChEMBL document CHEMBL4385591, “Structural studies of the binding of an antagonistic cyclic peptide to the VEGFR1 domain 2” (Eur J Med Chem, 2019)
The source made the active and inactive calls. The calls are words filed in the database; no cut-off is given here. Peptide text beside a SMILES is read from it.

Tests used:
RF/6A = conditions: Macaca mulatta, 50 uM
Description: Antiangiogenic activity in rhesus monkey RF/6A cells assessed as inhibition of VEGF-A-induced microtube formation at 50 uM pre-incubated for 15 mins followed by VEGF-A stimulation for 4 hrs by matrigel based capillary tube formation assay

HUVEC = conditions: Homo sapiens, 50 uM
Description: Antiangiogenic activity in HUVEC cells assessed as inhibition of VEGF-A-induced microtube formation at 50 uM pre-incubated for 15 mins followed by VEGF-A stimulation for 4 hrs by matrigel based capillary tube formation assay

SMILES: CC(C)C[C@@H]1NC(=O)CNC(=O)[C@H](CCC(=O)O)NC(=O)[C@H](CC(=O)O)NC(=O)[C@H](CCCCN)NC(=O)[C@H](Cc2ccc(O)cc2)NC(=O)CC[C@@H](C(=O)NCCc2ccc(O)c(O)c2)NC(=O)[C@H](CCC(=O)O)NC1=O (HELM PEPTIDE1{Y.K.D.E.G.L.E.E.[Oc1ccc(CCN[*:1])cc1O]}$PEPTIDE1,PEPTIDE1,1:R1-8:R3$$$V2.0)
- inhibition (RF/6A): Active
- inhibition (HUVEC): Active
